Test results: patent US9086390B2, “Dabigatran etexilate and related substances, processes and compositions, and use of the substances as reference standards and markers” (Medichem, S.A., priority 2011, dated 2015)
Counter-ions that a name gives are not always drawn.

Assay: Accelerated stability study of dabigatran etexilate mesylate (impurity contents by HPLC method 1)
Assay type: physicochemical
Settings: content of the named impurity in dabigatran etexilate mesylate of Example 6 after storage in a double polyethylene bag at 40° C. and 75% relative humidity for 3 months; HPLC method 1; area % with respect to dabigatran etexilate
Procedure: The chromatographic separation was carried out in a Kromasil 100-5C18, 5 μm, 4.6×250 mm column at 25° C. The mobile phase was prepared by filtering and degassing an acetonitrile/buffer solution (45:55) v/v mixture. The buffer solution was obtained by preparing a 50 mM formic acid solution in water and adjusting the pH to 3.8 with ammonium hydroxide. The chromatograph was equipped with a 254 nm detector and the flow rate was 1.0 mL per minute. 20 μL of the test samples were injected. The samples were prepared by dissolving the appropriate amount of sample in mobile phase, to obtain a concentration of about 1.0 mg/mL. The chromatogram was run for at least 30 min. […] Impurity contents are expressed in area % with respect to dabigatran etexilate.
For CCCCCCOC(=O)/N=C(/N)c1ccc(NCc2nc3cc(C(=O)N(CCC(=O)O)c4ccccn4)ccc3n2C)cc1 [Compound (C2), 3-{[(2-{[(4-{[(hexyloxy)carbonyl]carbamimidoyl}phenyl)amino]methyl}-1-methyl-1H-benzimidazol-5-yl)carbonyl](pyridin-2-yl)amino}propanoic acid], the “Compound/Impurity contents (area %) Example 7” value was 1.57 area %.
For CCCCCCOC(=O)/N=C(/N)c1ccc(NCc2nc3cc(C(=O)N(CCC(N)=O)c4ccccn4)ccc3n2C)cc1 [Compound (B4), 3-{[(2-{[(4-{[(hexyloxy)carbonyl]carbamimidoyl}phenyl)amino]methyl}-1-methyl-1H-benzimidazol-5-yl)carbonyl](pyridin-2-yl)amino}propanamide], the “Compound/Impurity contents (area %) Example 7” value was 0.71 area %.
In the case of CCCCCCOC(=O)NC(=O)c1ccc(NCc2nc3cc(C(=O)N(CCC(=O)OC)c4ccccn4)ccc3n2C)cc1 [Compound (B2), methyl 3-{[(2-{[(4-{[({hexyloxy}carbonyl)amino]carbonyl}phenyl)amino]methyl}-1-methyl-1H-benzimidazol-5-yl)carbonyl](pyridin-2-yl)amino}propanoate], the “Compound/Impurity contents (area %) Example 7” value was 0.25 area %.
For CCCCCCOC(=O)/N=C(/N)c1ccc(NCc2nc3cc(C(=O)N(CCC(=O)OC)c4ccccn4)ccc3n2C)cc1 [Compound (C3), methyl 3-{[(2-{[(4-{[(hexyloxy)carbonyl]carbamimidoyl}phenyl)amino]methyl}-1-methyl-1H-benzimidazol-5-yl)carbonyl](pyridin-2-yl)amino}propanoate], the “Compound/Impurity contents (area %) Example 7” value was 0.32 area %.
In the case of CCOC(=O)c1ccc2c(c1)nc(CNc1ccc(C(=N)N)cc1)n2C [Compound (A1), ethyl 2-{[(4-{carbamimidoyl}phenyl)amino]methyl}-1-methyl-1H-benzimidazol-5-carboxylate], the “Compound/Impurity contents (area %) Example 7” value was 0.38 area %.
With CCCCCCOC(=O)NC(=O)c1ccc(NCc2nc3cc(C(=O)N(CCC(=O)O)c4ccccn4)ccc3n2C)cc1 [Compound (B1), 3-{[(2-{[(4-{[({hexyloxy}carbonyl)amino]carbonyl}phenyl)amino]methyl}-1-methyl-1H-benzimidazol-5-yl)carbonyl](pyridin-2-yl)amino}propanoic acid] the “Compound/Impurity contents (area %) Example 7” value was 3.8 area %.
In the case of CCCCCCOC(=O)/N=C(/N)c1ccc(N)cc1 [Compound (D), 4-{[(hexyloxy)carbonyl]carbamimidoyl}aniline], the “Compound/Impurity contents (area %) Example 7” value was 0.18 area %.
With CCCCCCOC(=O)/N=C(/N)c1ccc(NCc2nc3cc(C(=O)OCC)ccc3n2C)cc1 [Compound (A2), ethyl 2-{[(4-{[(hexyloxy)carbonyl]carbamimidoyl}phenyl)amino]methyl}-1-methyl-1H-benzimidazol-5-carboxylate] the “Compound/Impurity contents (area %) Example 7” value was 0.42 area %.
In the case of Cn1c(CNc2ccc(C(=N)N)cc2)nc2cc(C(=O)N(CCC(=O)O)c3ccccn3)ccc21 [Compound (C1), 3-{[(2-{[(4-{carbamimidoyl}phenyl)amino]methyl}-1-methyl-1H-benzimidazol-5-yl)carbonyl](pyridin-2-yl)amino}propanoic acid, reference compound], the “Compound/Impurity contents (area %) Example 7” value was 1.64 area %.
In the case of CCCCCCOC(=O)NC(=O)c1ccc(NCc2nc3cc(C(=O)N(CCC(=O)OCC)c4ccccn4)ccc3n2C)cc1 [Compound (B3), ethyl 3-{[(2-{[(4-{[({hexyloxy}carbonyl)amino]carbonyl}phenyl)amino]methyl}-1-methyl-1H-benzimidazol-5-yl)carbonyl](pyridin-2-yl)amino}propanoate], the “Compound/Impurity contents (area %) Example 7” value was 7.62 area %.

Same assay, conditions: on storage, 40° C. and 75% relative humidity, moisture
For CCCCCCOC(=O)NC(=N)c1ccc(NCc2nc3cc(C(=O)N(CCC(=O)OCC)c4ccccn4)ccc3n2C)cc1 [dabigatran etexilate mesylate, reference compound], the “main hydrolysis product on storage” value was “a compound of formula (B), especially compound (B3)”.

Assay: not given
Settings: cited from earlier work
For CCCCCCOC(=O)NC(=N)c1ccc(NCc2nc3cc(C(=O)N(CCC(=O)OCC)c4ccccn4)ccc3n2C)cc1 [dabigatran etexilate mesylate, reference compound], the “main hydrolysis product in vivo” value is given as “a compound of formula (D1), namely dabigatran”.
